Laboratory results published in ChEMBL document CHEMBL1909046, “DrugMatrix in vitro pharmacology data”.

Columns and labels:
Cytochrome P450 2D6 = Cytochrome P450 2D6 (Homo sapiens, UniProt P10635); settings: bti-tn-5b1-4; also: in other assays of this panel Not Active means under 50% inhibition at 10 µM
D(3) dopamine receptor = D(3) dopamine receptor (Homo sapiens, UniProt P35462); test: DRUGMATRIX: Dopamine D3 radioligand binding (ligand: [3H] Spiperone); type: cell membranes, CHO, Membrane; settings: for Ki: read-out: Ki
Sequence of D(3) dopamine receptor (P35462 whole entry): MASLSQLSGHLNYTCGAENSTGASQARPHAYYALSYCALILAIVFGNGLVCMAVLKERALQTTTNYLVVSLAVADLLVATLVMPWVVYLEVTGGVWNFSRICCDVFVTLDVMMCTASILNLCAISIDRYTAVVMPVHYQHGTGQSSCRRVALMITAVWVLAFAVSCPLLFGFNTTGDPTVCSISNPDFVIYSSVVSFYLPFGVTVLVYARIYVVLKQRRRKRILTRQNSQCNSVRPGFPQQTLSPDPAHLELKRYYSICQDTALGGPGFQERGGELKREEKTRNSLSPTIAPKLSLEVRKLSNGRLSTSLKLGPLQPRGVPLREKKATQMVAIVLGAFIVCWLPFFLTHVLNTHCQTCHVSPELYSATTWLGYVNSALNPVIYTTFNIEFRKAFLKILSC

[1] = biological target: Kappa-type opioid receptor (Homo sapiens, UniProt P41145); test: DRUGMATRIX: Opiate kappa (OP2, KOP) radioligand binding (ligand: [3H] Diprenorphine); type: cell membranes, HEK293, Membrane; settings: Not Active = under 50% inhibition at 10 µM
Sequence of Kappa-type opioid receptor (P41145 whole entry): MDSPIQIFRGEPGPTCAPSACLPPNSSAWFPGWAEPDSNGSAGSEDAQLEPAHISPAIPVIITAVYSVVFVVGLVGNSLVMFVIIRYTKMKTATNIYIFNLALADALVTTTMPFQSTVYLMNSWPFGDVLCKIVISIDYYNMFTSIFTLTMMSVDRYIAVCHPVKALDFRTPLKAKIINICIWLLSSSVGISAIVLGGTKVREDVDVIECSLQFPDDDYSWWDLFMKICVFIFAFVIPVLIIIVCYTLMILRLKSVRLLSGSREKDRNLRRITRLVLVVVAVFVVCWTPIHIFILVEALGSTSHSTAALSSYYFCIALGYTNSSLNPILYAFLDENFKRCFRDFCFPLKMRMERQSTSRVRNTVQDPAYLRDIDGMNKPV

Cytochrome P450 2A6 = biological target: T1, Cytochrome P450 2A6 (Homo sapiens, UniProt P11509); settings: bti-tn-5b1-4; also: in other assays of this panel Not Active means under 50% inhibition at 10 µM
T1 sequence (P11509 whole entry): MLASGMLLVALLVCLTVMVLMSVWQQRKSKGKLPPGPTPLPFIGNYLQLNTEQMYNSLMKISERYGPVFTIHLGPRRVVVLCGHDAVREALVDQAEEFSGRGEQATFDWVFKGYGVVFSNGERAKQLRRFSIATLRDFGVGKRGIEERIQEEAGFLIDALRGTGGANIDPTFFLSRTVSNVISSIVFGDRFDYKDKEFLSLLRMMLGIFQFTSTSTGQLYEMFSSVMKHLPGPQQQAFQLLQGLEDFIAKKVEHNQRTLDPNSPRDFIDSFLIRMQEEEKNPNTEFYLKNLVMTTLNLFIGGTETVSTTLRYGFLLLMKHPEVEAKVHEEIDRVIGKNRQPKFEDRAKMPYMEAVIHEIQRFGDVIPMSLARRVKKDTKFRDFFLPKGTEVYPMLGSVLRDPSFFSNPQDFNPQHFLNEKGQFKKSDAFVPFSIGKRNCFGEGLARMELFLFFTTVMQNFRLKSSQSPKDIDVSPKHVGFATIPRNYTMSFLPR

Cytochrome P450 2C9 = Cytochrome P450 2C9 (Homo sapiens, UniProt P11712); settings: bti-tn-5b1-4; also: in other assays of this panel Not Active means under 50% inhibition at 10 µM
Sequence of Cytochrome P450 2C9 (P11712 whole entry): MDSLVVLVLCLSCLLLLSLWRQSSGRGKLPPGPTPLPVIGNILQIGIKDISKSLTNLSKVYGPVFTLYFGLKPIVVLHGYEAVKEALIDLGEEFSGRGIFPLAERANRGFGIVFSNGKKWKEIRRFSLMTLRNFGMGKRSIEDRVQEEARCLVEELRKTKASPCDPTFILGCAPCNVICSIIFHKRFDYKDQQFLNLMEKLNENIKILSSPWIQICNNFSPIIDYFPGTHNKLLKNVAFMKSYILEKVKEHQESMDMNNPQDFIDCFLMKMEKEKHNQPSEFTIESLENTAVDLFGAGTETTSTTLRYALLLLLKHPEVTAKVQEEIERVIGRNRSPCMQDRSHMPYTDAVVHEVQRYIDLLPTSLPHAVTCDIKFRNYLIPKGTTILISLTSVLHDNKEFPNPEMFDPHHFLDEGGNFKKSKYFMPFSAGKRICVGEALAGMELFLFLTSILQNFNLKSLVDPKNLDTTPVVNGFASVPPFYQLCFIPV

Estrogen receptor beta = Estrogen receptor beta (Homo sapiens, UniProt Q92731); settings: sf9; also: in other assays of this panel Not Active means under 50% inhibition at 10 µM
Sequence of Estrogen receptor beta (Q92731 whole entry): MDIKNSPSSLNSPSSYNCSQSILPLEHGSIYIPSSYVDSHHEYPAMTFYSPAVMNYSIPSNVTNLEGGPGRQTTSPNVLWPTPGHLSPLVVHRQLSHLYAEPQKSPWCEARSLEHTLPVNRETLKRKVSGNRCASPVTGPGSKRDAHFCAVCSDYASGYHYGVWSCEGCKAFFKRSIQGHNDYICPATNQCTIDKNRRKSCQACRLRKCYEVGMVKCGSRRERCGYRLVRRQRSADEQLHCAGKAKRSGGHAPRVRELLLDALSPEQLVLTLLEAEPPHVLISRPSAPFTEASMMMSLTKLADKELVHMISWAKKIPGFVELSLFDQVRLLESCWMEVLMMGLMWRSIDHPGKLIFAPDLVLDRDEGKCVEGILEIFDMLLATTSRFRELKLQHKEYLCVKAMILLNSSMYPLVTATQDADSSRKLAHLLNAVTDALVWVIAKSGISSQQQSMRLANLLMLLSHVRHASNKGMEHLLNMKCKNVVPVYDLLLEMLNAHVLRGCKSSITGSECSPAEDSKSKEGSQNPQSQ

[2] = biological target: Voltage-gated inwardly rectifying potassium channel KCNH2 (Homo sapiens, UniProt Q12809); settings: hek293; also: in other assays of this panel Not Active means under 50% inhibition at 10 µM
Sequence of Voltage-gated inwardly rectifying potassium channel KCNH2 (Q12809 whole entry): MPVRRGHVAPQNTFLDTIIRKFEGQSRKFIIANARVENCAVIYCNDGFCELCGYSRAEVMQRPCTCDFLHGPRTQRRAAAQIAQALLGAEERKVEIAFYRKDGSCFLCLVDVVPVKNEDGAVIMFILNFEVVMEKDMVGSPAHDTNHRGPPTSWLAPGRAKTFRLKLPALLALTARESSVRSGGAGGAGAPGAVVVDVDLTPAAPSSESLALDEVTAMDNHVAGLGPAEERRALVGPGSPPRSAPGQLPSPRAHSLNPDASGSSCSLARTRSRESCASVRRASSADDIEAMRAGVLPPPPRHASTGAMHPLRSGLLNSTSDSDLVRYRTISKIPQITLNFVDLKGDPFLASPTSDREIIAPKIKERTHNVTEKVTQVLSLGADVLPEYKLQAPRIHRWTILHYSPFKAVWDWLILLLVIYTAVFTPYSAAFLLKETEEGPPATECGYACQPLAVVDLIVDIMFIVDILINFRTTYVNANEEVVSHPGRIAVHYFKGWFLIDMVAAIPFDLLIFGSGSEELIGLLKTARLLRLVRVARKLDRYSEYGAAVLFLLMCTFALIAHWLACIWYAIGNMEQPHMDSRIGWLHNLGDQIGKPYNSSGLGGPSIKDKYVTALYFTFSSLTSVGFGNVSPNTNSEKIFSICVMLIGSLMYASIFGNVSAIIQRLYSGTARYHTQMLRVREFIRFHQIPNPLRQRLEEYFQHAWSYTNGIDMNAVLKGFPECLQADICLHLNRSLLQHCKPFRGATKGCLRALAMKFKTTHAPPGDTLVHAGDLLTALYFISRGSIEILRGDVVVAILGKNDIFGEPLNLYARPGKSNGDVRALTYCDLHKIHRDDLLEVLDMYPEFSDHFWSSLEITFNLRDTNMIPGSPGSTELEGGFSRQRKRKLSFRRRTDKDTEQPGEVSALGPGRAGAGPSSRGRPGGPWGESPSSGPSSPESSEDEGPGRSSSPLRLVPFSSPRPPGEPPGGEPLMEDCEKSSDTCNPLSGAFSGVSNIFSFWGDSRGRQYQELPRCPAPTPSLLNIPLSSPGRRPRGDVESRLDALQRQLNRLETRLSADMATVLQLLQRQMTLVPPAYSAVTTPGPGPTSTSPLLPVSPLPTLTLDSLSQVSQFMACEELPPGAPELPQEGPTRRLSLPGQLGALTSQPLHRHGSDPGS

Sequence of Cytochrome P450 2D6 (P10635 whole entry): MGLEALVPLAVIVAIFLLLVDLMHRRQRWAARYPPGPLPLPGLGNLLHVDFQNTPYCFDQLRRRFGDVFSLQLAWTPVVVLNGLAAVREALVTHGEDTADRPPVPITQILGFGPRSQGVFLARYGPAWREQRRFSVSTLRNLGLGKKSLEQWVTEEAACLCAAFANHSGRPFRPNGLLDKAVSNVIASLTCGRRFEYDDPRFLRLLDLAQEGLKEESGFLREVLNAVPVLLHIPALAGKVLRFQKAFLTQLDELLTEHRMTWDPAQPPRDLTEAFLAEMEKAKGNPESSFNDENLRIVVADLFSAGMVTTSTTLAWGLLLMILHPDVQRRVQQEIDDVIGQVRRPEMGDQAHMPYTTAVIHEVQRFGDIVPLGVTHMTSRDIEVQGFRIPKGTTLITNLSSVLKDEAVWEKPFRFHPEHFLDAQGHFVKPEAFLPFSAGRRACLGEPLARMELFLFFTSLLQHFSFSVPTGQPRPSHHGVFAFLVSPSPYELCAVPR

SMILES	IC50 (Cytochrome P450 2D6)	Ki (Cytochrome P450 2D6)	IC50 (D(3) dopamine receptor; cho)	Ki [1] [nM]	IC50 ([1]; read-out: IC50) [nM]	IC50 (Cytochrome P450 2A6)	Ki (Cytochrome P450 2A6)	IC50 (Cytochrome P450 2C9)	Ki (Cytochrome P450 2C9)	IC50 (Estrogen receptor beta)	IC50 ([1]; hek293)	IC50 [2]	Ki [2]	IC50 (D(3) dopamine receptor; read-out: IC50) [nM]	Ki (D(3) dopamine receptor) [nM]
CC#C[C@]1(O)CC[C@H]2[C@@H]3CCC4=CC(=O)CCC4=C3[C@@H](c3ccc(N(C)C)cc3)C[C@@]21C [MIFEPRISTONE]	Not Active	Not Active	Not Active	8040	20100	Not Active	Not Active	Not Active	Not Active	Not Active					
CC[C@@]1(O)C(=O)OCc2c1cc1n(c2=O)Cc2cc3c(CN(C)C)c(O)ccc3nc2-1 [TOPOTECAN]	Not Active	Not Active	Not Active			Not Active	Not Active	Not Active	Not Active	Not Active	Not Active	Not Active	Not Active		
CC[C@H](C)[C@@H](CO[C@@H](Cc1ccccc1)C(=O)N[C@@H](CCS(C)(=O)=O)C(=O)OC(C)C)NC[C@@H](N)CS						Not Active	Not Active	Not Active	Not Active	Not Active	Not Active	Not Active	Not Active	28	9.63
CO[C@@]12[C@H](COC(N)=O)C3=C(C(=O)C(C)=C(N)C3=O)N1C[C@@H]1N[C@@H]12 [MITOMYCIN]	Not Active	Not Active	Not Active			Not Active	Not Active	Not Active	Not Active	Not Active	Not Active	Not Active	Not Active		
Cc1cn([C@H]2C=C[C@@H](CO)O2)c(=O)[nH]c1=O [STAVUDINE]	Not Active	Not Active	Not Active			Not Active	Not Active	Not Active	Not Active	Not Active	Not Active	Not Active	Not Active		
C#C[C@]1(O)CC[C@H]2[C@@H]3[C@H](C)CC4=C(CCC(=O)C4)[C@H]3CC[C@@]21C [TIBOLONE]	Not Active	Not Active	Not Active			Not Active	Not Active	Not Active	Not Active	Not Active	Not Active	Not Active	Not Active		
O=C(O)c1cc(/N=N/c2ccc(S(=O)(=O)Nc3ccccn3)cc2)ccc1O [SULFASALAZINE]	Not Active	Not Active	Not Active			Not Active	Not Active	Not Active	Not Active	Not Active	Not Active	Not Active	Not Active		
CCN(CC)C(=S)SSC(=S)N(CC)CC	Not Active	Not Active		2440	6100	Not Active	Not Active	Not Active	Not Active	Not Active		Not Active	Not Active	1080	368
Cc1ccc(Cl)c(Nc2ccccc2C(=O)O)c1Cl [MECLOFENAMIC ACID]	Not Active	Not Active	Not Active			Not Active	Not Active	Not Active	Not Active	Not Active	Not Active	Not Active	Not Active		
CC(C)(C)NC[C@H](O)COc1cccc2c1CCCC2=O [LEVOBUNOLOL]	Not Active	Not Active	Not Active			Not Active	Not Active	Not Active	Not Active	Not Active	Not Active	Not Active	Not Active		
Cc1cccc(C)c1NC(=O)C(C)N (stereo not given) [TOCAINIDE]	Not Active	Not Active	Not Active			Not Active	Not Active	Not Active	Not Active	Not Active	Not Active	Not Active	Not Active		
Cc1cnc(NC(=O)C2=C(O)c3ccccc3S(=O)(=O)N2C)s1 [MELOXICAM]	Not Active	Not Active	Not Active			Not Active	Not Active	Not Active	Not Active	Not Active	Not Active	Not Active	Not Active		
Cc1[nH]c(=O)c(C#N)cc1-c1ccncc1 [MILRINONE]	Not Active	Not Active	Not Active			Not Active	Not Active	Not Active	Not Active	Not Active	Not Active				
C[C@]12CCC(=O)C[C@@H]1CC[C@@H]1[C@@H]2CC[C@]2(C)[C@@H](O)CC[C@@H]12 [STANOLONE]	Not Active	Not Active	Not Active			Not Active	Not Active	Not Active	Not Active	Not Active	Not Active	Not Active	Not Active		
CCN(CC)CCNC(=O)c1cc(Cl)c(N)cc1OC [METOCLOPRAMIDE]						Not Active	Not Active	Not Active	Not Active	Not Active	Not Active	Not Active	Not Active	200	68
CS(=O)(=O)c1ccc(C2=C(c3ccccc3)C(=O)OC2)cc1 [ROFECOXIB]	Not Active	Not Active	Not Active			Not Active	Not Active	Not Active	Not Active	Not Active	Not Active	Not Active	Not Active		
CC1(C)[C@H](C(=O)O)N2C(=O)C[C@H]2S1(=O)=O [SULBACTAM]	Not Active	Not Active	Not Active			Not Active	Not Active	Not Active	Not Active	Not Active	Not Active	Not Active	Not Active		
CC(N)C12CC3CC(CC(C3)C1)C2 (stereo not given) [RIMANTADINE]	Not Active	Not Active	Not Active			Not Active	Not Active	Not Active	Not Active	Not Active	Not Active	Not Active	Not Active		
CC[C@H](C)C(=O)O[C@H]1CCC=C2C=C[C@H](C)[C@H](CC[C@@H]3C[C@@H](O)CC(=O)O3)[C@H]21 [MEVASTATIN]	Not Active	Not Active	Not Active			Not Active	Not Active	Not Active	Not Active	Not Active	Not Active				
C=CCc1ccc2c(c1)OCO2 [SAFROLE]	Not Active	Not Active	Not Active			Not Active	Not Active	Not Active	Not Active	Not Active	Not Active	Not Active	Not Active		
